The values below come from patent US20240408222A1, “COMPOUNDS, PHARMACEUTICAL COMPOSITIONS, AND METHODS FOR THE TREATMENT, PREVENTION, OR MANAGEMENT OF HYPERPRO[…]” (VINCERX PHARMA GMBH, priority 2021, published 2024).

Assay [1] has as its system NCI H292. As to the kind of experiment: Cytotoxicity in vitro in presence/absence of cathepsin B. Type of assay: cell-based, human.
For another assay, the target named is cathepsin B (Homo sapiens, UniProt P07858). The experiment in a line: Biochemical cathepsin B cleavage assay (metabolite detection by RP-HPLC). The method, then: Incubation of samples starts with addition of cathepsin B solution (2.5 μg in […] 50 mM sodium phosphate buffer, pH 6.0/2 mM DTT). The incubation is performed at 40° C., and after 16 h incubation a 40 μL sample is taken and added to 80 μL ice-cold methanol. […] The metabolite (product) and the parent compound (educt) is measured.

Assay [2] concerns NCI H292. The experiment in a line: Cytotoxicity assay (Version 2, automated, AC50) with/without neutrophil elastase. Type of assay: cell-based, human. The note with it: Version 2, activity concentration at −50%. In outline:
(§1)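 Automated run. Compound ± 10 nM neutrophil elastase, 72 h, 37 °C; MTT readout. AC50 defined as concentration at −50% vs DMSO (0%) and cell-free wells (−100%).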

Assay [3] has as its system HT29. The description is as above. The format is cell-based, human. The following applies: Version 2, activity concentration at −50%. In outline: as §1
For a further assay, the system named is 786-O. Described as above. The format is cell-based, human. The note with it: Version 2, activity concentration at −50%. In short, it runs like this:
as §1

For assay [4], the system named is HT29. As to the kind of experiment: Cytotoxicity in vitro in presence/absence of cathepsin B. Type of assay: cell-based, human.
Assay [5] relates to SUM149. As to the kind of experiment: Cytotoxicity assay (Version 2, automated, AC50) with/without neutrophil elastase. Type of assay: cell-based. The note with it: Version 2, activity concentration at −50%. In short, it runs like this:
as §1

Assay [6] deals with SUM149. The experiment in a line: Cytotoxicity in vitro in presence/absence of cathepsin B. The format is cell-based.
The test system of assay [7] is SUM149. The experiment in a line: Cytotoxicity in vitro in presence/absence of legumain. The format is cell-based.
Assay [8] relates to NCI H292. Described as above. The format is cell-based, human.
Another assay deals with rec. human legumain (Homo sapiens, UniProt Q99538). The note with it: for metabolite formation after incubation with legumain: 16 h incubation, 37° C., pH 5,0; for metabolite formation without addition of active legumain: control without active legumain. As for the experimental part: 10 μg rec. human legumain are added to 100 μL activation buffer (50 mM sodium acetate buffer/100 mM NaCl, pH 4,0) and incubated for 2 h at 37° C., before 4.9 mL assay buffer (50 mM MES buffer/250 mM NaCl, pH 5,0) is added (final concentration of rec. hum. legumain: 2 μg/mL). For the selected sample, activated legumain is added to the compound solution. Then the solution is incubated at 37° C. At 16 h-a 50 μL sample is taken and added to 100 μL ice-cold methanol. For the untreated control (0 h) ice-cold methanol is pipetted in a tube before the legumain and compound solution are added. Samples can be stored at −20° C. or analyzed directly by HPLC or LCMS. The metabolite and the parent compound (educt) are measured.
rec. human legumain, sequence (Q99538 18-323 limits assumed): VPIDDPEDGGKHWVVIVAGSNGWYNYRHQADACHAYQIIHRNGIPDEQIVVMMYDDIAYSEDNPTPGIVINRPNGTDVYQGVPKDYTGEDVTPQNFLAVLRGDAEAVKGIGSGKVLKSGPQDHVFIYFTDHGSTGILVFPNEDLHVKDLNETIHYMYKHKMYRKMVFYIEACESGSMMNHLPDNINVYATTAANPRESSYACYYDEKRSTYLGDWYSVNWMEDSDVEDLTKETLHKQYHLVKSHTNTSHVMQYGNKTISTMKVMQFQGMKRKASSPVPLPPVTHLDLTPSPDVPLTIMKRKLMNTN
Samples from enzymatic assays are added to the double volume of methanol and incubated for at least 30 min at −20° C. to precipitate proteins. Samples are then centrifuged for 10 min, 16100×g at 4° C. and analyzed by RP-HPLC using a gradient (PLRP-S-A1 79.0% PLRP-S—B1 21.0%, duration 24 min). After the centrifugation the supernatant is collected, calibration curves are obtained using the respective compound and the corresponding metabolite solution. A 10 mM DMSO stock solution is diluted with Methanol to achieve the chosen end concentration.

The test system of assay [9] is HT29. The experiment in a line: Cytotoxicity in vitro in presence/absence of legumain. Type of assay: cell-based, human.
Setting [10] is: NCI H292, with (+) neutrophil elastase.
[11] abbreviates: NCI H292, without (−) neutrophil elastase.
Where [12] appears, read: HT29, with (+) neutrophil elastase.
Where [13] appears, read: HT29, without (−) neutrophil elastase.
The mark [14] stands for this setting: without (−) neutrophil elastase.
Setting [15] is: SUM149, with (+) neutrophil elastase.
Setting [16] is: SUM149, without (−) neutrophil elastase.

For orientation: IC50 means the midpoint of a concentration-inhibition curve. The AC50 is the concentration at which the activity in the assay is half-maximal. Low values mean greater potency, high ones weaker potency. Take `CCCNC(=O)Nc1cccc(S(=O)(=O)Nc2cccc([C@@H](CC(=O)[O-])NC(=O)Nc3ccc(NC(=O)NCCOCCOCCOCCC(=O)N[C@H](C(=O)N[C@@H](CCCNC(N)=O)C(=O)N=[S@@](C)(=O)Cc4cc5cc(c4)OCCCCOc4cc(F)ccc4-c4nc(ncc4F)N5)C(C)C)cc3)c2)c1.[Na+]` [Compound 7, sodium N-{14-[4-({[(1R)-2-carboxylato-1-{3-[({3-[(propylcarbamoyl)amino]phenyl}sulfonyl)amino]phenyl}ethyl]carbamoyl}amino)anilino]-14-oxo-4,7,10-trioxa-13-azatetradecan-1-oyl}-L-valyl-N^5-carbamoyl-N—[(S)-{[16,20-difluoro-2,3,4,5-tetrahydro-12H-13,17-(azeno)-11,7-(metheno)-1,6,12,14-benzodioxadiazacyclononadecin-9-yl]methyl}(methyl)oxido-lambda^6-sulfanylidene]-L-ornithinamide]: the half-maximal inhibitory concentration (IC50) with NCI H292 [1] (NCI H292, with (+) cathepsin) was 0.011 to 0.1 µM; in the assay on NCI H292 [1] (NCI H292, without (−) cathepsin), 0.011 to 0.1 µM; with HT29 [4] (HT29, with (+) cathepsin), greater than 0.1 µM; with HT29 [4] (HT29, without (−) cathepsin), greater than 0.1 µM; in the assay with SUM149 [6] (SUM149, with (+) cathepsin), 0.011 to 0.1 µM; in the assay with SUM149 [6] (SUM149, without (−) cathepsin), greater than 0.1 µM. For the same compound, the “metabolite detected after incubation with cathepsin B” value on cathepsin B (16 h incubation, 40° C., pH 6.0) was 16%. Further, on cathepsin B (control without active cathepsin B), the “metabolite formation without addition of active cathepsin B” value is on record as “no metabolite formation is detected”. Further, the AC50 with NCI H292 [2] (setting [10]) fell in the range of 0.1 to 1 µM; in the assay with NCI H292 [2] (setting [11]) it was 0.1 to 1 µM; with HT29 [3] (setting [12]), 0.011 to 0.1 µM; in the assay on HT29 [3] (setting [13]), 0.011 to 0.1 µM; in the assay on 786-O (with (+) neutrophil elastase) it was 0.011 to 0.1 µM; with 786-O (setting [14]) it was 0.011 to 0.1 µM. The AC50 in the assay on SUM149 [5] (setting [15]) and with SUM149 [5] (setting [16]) was 0.011 to 0.1 µM each time.

As to `CCCNC(=O)Nc1cccc(S(=O)(=O)Nc2cccc([C@@H](CC(=O)[O-])NC(=O)Nc3ccc(NC(=O)NCCOCCOCCOCCC(=O)N[C@@H](C)C(=O)N(C)[C@@H](C)C(=O)N[C@@H](CC(=O)N=[S@@](C)(=O)Cc4cc5cc(c4)OCCCCOc4cc(F)ccc4-c4nc(ncc4F)N5)C(N)=O)cc3)c2)c1.[Na+]` [Compound 8, sodium N-{14-[4-({[(1R)-2-carboxylato-1-{3-[({3-[(propylcarbamoyl)amino]phenyl}sulfonyl)amino]phenyl}ethyl]carbamoyl}amino)anilino]-14-oxo-4,7,10-trioxa-13-azatetradecan-1-oyl}-L-alanyl-N-methyl-L-alanyl-N′—[(S)-{[16,20-difluoro-2,3,4,5-tetrahydro-12H-13,17-(azeno)-11,7-(metheno)-1,6,12,14-benzodioxadiazacyclononadecin-9-yl]methyl}(methyl)oxido-lambda^6-sulfanylidene]-L-aspartamide], the IC50 in the assay with SUM149 [7] (SUM149, with (+) legumain) was 0.011 to 0.1 µM; in the assay on SUM149 [7] (SUM149, without (−) legumain), 0.011 to 0.1 µM; in the assay on NCI H292 [8] (NCI H292, with (+) legumain), 0.0011 to 0.01 µM; in the assay on NCI H292 [8] (NCI H292, without (−) legumain) it was 0.011 to 0.1 µM; in the assay on HT29 [9] (HT29, with (+) legumain), 0.011 to 0.1 µM; with HT29 [9] (HT29, without (−) legumain), 0.011 to 0.1 µM. Also, at rec. human legumain, the “metabolite formation after incubation with legumain” value is “complete metabolite formation”. Moreover, the “metabolite formation without addition of active legumain” value at rec. human legumain is listed as “no metabolite formation is detected”. Besides, the AC50 is 0.1 to 1 µM in the assay with NCI H292 [2] (setting [10]); 0.1 to 1 µM in the assay on NCI H292 [2] (setting [11]); 0.011 to 0.1 µM with HT29 [3] (setting [12]); greater than 1 µM in the assay with HT29 [3] (setting [13]); 0.1 to 1 µM with 786-O (with (+) neutrophil elastase); greater than 1 µM in the assay on 786-O (setting [14]). For the same compound, the concentration at half-maximal activity (AC50) with SUM149 [5] (setting [15]) was 0.1 to 1 µM; in the assay with SUM149 [5] (setting [16]) it was greater than 1 µM.

With “Sodium N-{14-[4-({[(1S)-2-carboxylato-1-{3-[({3-[(propylcarbamoyl)amino]phenyl}sulfonyl) amino]phenyl}ethyl]carbamoyl}amino)anilino]-14-oxo-4,7,10-trioxa-13-azatetradecan-1-oyl}-L-alanyl-N-methyl-L-alanyl-N′—[(S)-{[16,20-difluoro-2,3,4,5-tetrahydro-12H-13,17-(azeno)-11,7-(metheno)-1,6,12,14-benzodioxadiazacyclononadecin-9-yl]methyl} (methyl)oxido-lambda^6-sulfanylidene]-L-aspartamide [Compound 13]”, the concentration for half-maximal inhibition (IC50) lay in the range of 0.011 to 0.1 µM with SUM149 [7] (SUM149, with (+) legumain); 0.011 to 0.1 µM in the assay on SUM149 [7] (SUM149, without (−) legumain); 0.011 to 0.1 µM in the assay on NCI H292 [8] (NCI H292, with (+) legumain); 0.011 to 0.1 µM in the assay with NCI H292 [8] (NCI H292, without (−) legumain); 0.011 to 0.1 µM in the assay with HT29 [9] (HT29, with (+) legumain); 0.011 to 0.1 µM in the assay on HT29 [9] (HT29, without (−) legumain). Moreover, the “metabolite formation after incubation with legumain” value on rec. human legumain is “complete metabolite formation”. Also, the “metabolite formation without addition of active legumain” value on rec. human legumain was “no metabolite formation is detected”. The AC50 in the assay with NCI H292 [2] (setting [10]) is 0.1 to 1 µM; in the assay with NCI H292 [2] (setting [11]), 0.1 to 1 µM; in the assay with HT29 [3] (setting [12]), 0.011 to 0.1 µM; with HT29 [3] (setting [13]) it was greater than 1 µM; in the assay with 786-O (with (+) neutrophil elastase), 0.011 to 0.1 µM; in the assay on 786-O (setting [14]), greater than 1 µM. Moreover, the AC50 was 0.011 to 0.1 µM with SUM149 [5] (setting [15]) and greater than 1 µM in the assay with SUM149 [5] (setting [16]).
